Results reported in patent US4725683A, “Fluorophenoxyphenoxypropionates and derivatives thereof” (The Dow Chemical Company, priority 1985, dated 1988).

How the values were obtained:
Format in all cases: in vivo
Foxtail [1] = test: Postemergent control of plant species; conditions: 250 ppm
Foxtail [2] = test: Postemergent control of plant species
Protocol: (§1) Representative compositions of the present invention were evaluated for the postemergence control of species of plants listed in Table A. In these evaluations, pots of the plant species listed in Table A, grown to a height of about 10 cms, were used. Aqueous spray compositions, containing various amounts of 2-[4-(2-fluoro-4-trifluoromethylphenoxy)-phenoxy]propionic acid methy ester, i.e., 125 ppm, 62.5 ppm, 31.25 ppm, 15.6 ppm, 7.8 ppm and 3.9 ppm, respectively, were applied to separate pots. The spray compositions were made by mixing the active ingredient in acetone to 1/2 the final volume, i.e., twice the final concentration. An equal amount of water was added to the active ingredient/acetone mixture wherein the water contained 0.1 percent by weight of TWEEN® 200 surfactant. The application to the plants was made to the point of run-off and was carried out with conventional spraying equipment. Other pots were sprayed with similar compositions containing no toxicant to serve as controls. Thereafter, the pots were maintained under conditions conducive for plant growth. Two weeks after treatment, the pots were examined for plant growth and evaluated on a scale of 0 to 100 where 0 represents no effect and 100 represents complete kill. The results of the examination of the treated pots are set forth below in Table A.
(§2) In further operations employing the above general procedures and the indicated test compounds the following results were obtained: […]

Crabgrass = test: Postemergent activity
Protocol: as §1
(§3) Substantially the same procedures as those described in Example A were repeated except that the active ingredients were 2-[4-(4-chloro-2-fluorophenoxy)phenoxy]propionic acid; methyl ester and its R-enantiomer and 2-(4-(4-bromo-2-fluorophenoxy)phenoxy propionic acid; methyl ester and its R enantiomer. The results are listed below in Table B.
as §2

Barnyard Grass = test: Postemergent activity
Protocol: as §1, §3, §2

Wild Oats = test: Postemergent activity; conditions: Avena fatua, post-emergence, 336 h; for pest or weed control at 7.8 ppm / pest or weed control at 15.6 ppm / pest or weed control at 62.5 ppm / pest or weed control at 125 ppm / pest or weed control at 250 ppm: read-out: % Control
Protocol: as §1, §3, §2

Wheat = test: Postemergent activity; conditions: Triticum aestivum, post-emergence, 336 h, read-out: % Control
Protocol: as §1, §3, §2

| SMILES | Percent Control (Foxtail [1]) | Percent Control (Foxtail [2]; 7.8 ppm) | Percent Control (Foxtail [2]; 15.6 ppm) | Percent Control (Foxtail [2]; 31.2 ppm) | Percent Control (Foxtail [2]; 62.5 ppm) | Percent Control (Foxtail [2]; 125 ppm) | % Control (Crabgrass; 7.8 ppm) | % Control (Crabgrass; 15.6 ppm) | % Control (Crabgrass; 31.2 ppm) | % Control (Crabgrass; 62.5 ppm) | % Control (Crabgrass; 125 ppm) | % Control (Barnyard Grass; 7.8 ppm) | % Control (Barnyard Grass; 15.6 ppm) | % Control (Barnyard Grass; 31.2 ppm) | % Control (Barnyard Grass; 62.5 ppm) | % Control (Barnyard Grass; 125 ppm) | % Control (Barnyard Grass; 250 ppm) | pest or weed control at 7.8 ppm (Wild Oats) | pest or weed control at 15.6 ppm (Wild Oats) | pest or weed control at 31.2 ppm (Wild Oats) | other results |
| --- | --- | --- | --- | --- | --- | --- | --- | --- | --- | --- | --- | --- | --- | --- | --- | --- | --- | --- | --- | --- | --- |
| CC(=O)CC(O)C(C)Oc1ccc(Oc2ccc(Br)cc2F)cc1 (centres unmarked) | 25% | 0% | 0% | 0% | 0% | 20% | 0% | 0% | 0% | 95% | 95% | 0% | 0% | 0% | 0% | 0% | 0% | 0% | 0% | 0% | pest or weed control at 62.5 ppm (Wild Oats): 0%; pest or weed control at 125 ppm (Wild Oats): 0%; pest or weed control at 250 ppm (Wild Oats): 0%; plant injury at 7.8 ppm (Wheat): 0%; plant injury at 15.6 ppm (Wheat): 0%; plant injury at 31.2 ppm (Wheat): 0%; plant injury at 62.5 ppm (Wheat): 0%; plant injury at 125 ppm (Wheat): 0% |
| CCOC(=O)CC(O)C(C)Oc1ccc(Oc2ccc(Br)cc2F)cc1 (centres unmarked) | 100% | 0% | 0% | 0% | 100% | 100% | 0% | 20% | 20% | 100% | 100% | 0% | 0% | 80% | 100% | 100% | 100% | 0% | 0% | 0% | % Control (Crabgrass; 250 ppm): 100%; pest or weed control at 62.5 ppm (Wild Oats): 0%; pest or weed control at 125 ppm (Wild Oats): 50%; pest or weed control at 250 ppm (Wild Oats): 50%; plant injury at 7.8 ppm (Wheat): 0%; plant injury at 15.6 ppm (Wheat): 0%; plant injury at 31.2 ppm (Wheat): 0%; plant injury at 62.5 ppm (Wheat): 0% |
| CC(=O)C(C(C)=O)C(=O)C(C)Oc1ccc(Oc2ccc(Br)cc2F)cc1 (centres unmarked) | 100% | 0% | 0% | 100% | 100% | 100% | 0% | 70% | 100% | 100% | 100% | 0% | 0% | 0% | 100% | 100% | 100% | 0% | 0% | 0% | % Control (Crabgrass; 250 ppm): 100%; pest or weed control at 62.5 ppm (Wild Oats): 0%; pest or weed control at 125 ppm (Wild Oats): 0%; pest or weed control at 250 ppm (Wild Oats): 50%; plant injury at 7.8 ppm (Wheat): 0%; plant injury at 15.6 ppm (Wheat): 0%; plant injury at 31.2 ppm (Wheat): 0% |
| C=CC(=O)C(C)Oc1ccc(Oc2ccc(Br)cc2F)cc1 (centres unmarked) | 100% | 0% | 0% | 0% | 0% | 0% | 0% | 0% | 0% | 100% | 98% | 0% | 0% | 0% | 0% | 0% | 30% | 0% | 0% | 0% | % Control (Crabgrass; 250 ppm): 98%; pest or weed control at 62.5 ppm (Wild Oats): 0%; pest or weed control at 125 ppm (Wild Oats): 0%; pest or weed control at 250 ppm (Wild Oats): 0%; plant injury at 7.8 ppm (Wheat): 0%; plant injury at 15.6 ppm (Wheat): 0%; plant injury at 31.2 ppm (Wheat): 0%; plant injury at 62.5 ppm (Wheat): 0%; plant injury at 125 ppm (Wheat): 0%; plant injury at 250 ppm (Wheat): 0% |
| COC(=O)C=C(OC)C(C)Oc1ccc(Oc2ccc(Br)cc2F)cc1 (centres unmarked) | 100% | 0% | 0% | 0% | 0% | 0% | 0% | 0% | 20% | 95% | 98% | 0% | 0% | 0% | 0% | 0% | 0% | 0% | 0% | 0% | % Control (Crabgrass; 250 ppm): 100%; pest or weed control at 62.5 ppm (Wild Oats): 0%; pest or weed control at 125 ppm (Wild Oats): 0%; pest or weed control at 250 ppm (Wild Oats): 0%; plant injury at 7.8 ppm (Wheat): 0%; plant injury at 15.6 ppm (Wheat): 0%; plant injury at 31.2 ppm (Wheat): 0%; plant injury at 62.5 ppm (Wheat): 0%; plant injury at 125 ppm (Wheat): 0%; plant injury at 250 ppm (Wheat): 0% |
